Data on 3 compounds can be found in PubChem BioAssay (NCI).

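Following 48 hours of exposure in 96-well plates, responses at five concentrations were used to interpolate endpoints linearly. The concentration for full growth arrest is given as TGI.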

Some test systems named below: M14 melanoma; SNB-19 CNS; UACC-62 melanoma; RPMI-8226 leukemia; HT29 colon; UACC-257 melanoma; K-562 leukemia; SW-620 colon; OVCAR-5 ovarian; SF-295 CNS; HOP-62 NSCLC; HCT-116 colon; SK-MEL-28 melanoma; MOLT-4 leukemia; NCI-H522 lung; UO-31 renal; COLO 205 colon; SF-268 CNS; MALME-3M melanoma; OVCAR-3 ovarian.
Holding throughout (assay): growth of human tumour cells (NCI), 48 h

Turning to `O=[N+]([O-])c1ccc(-c2ccc(-c3csc(Nc4ccccn4)n3)o2)cc1`, the TGI was greater than 100 µM in the test with M14 melanoma; 77.4 µM in the test with SNB-19 CNS; greater than 100 µM in the test with UACC-62 melanoma; greater than 100 µM in the test with RPMI-8226 leukemia; greater than 100 µM with HT29 colon; greater than 100 µM in the test on UACC-257 melanoma. Besides, the TGI in the test with K-562 leukemia was greater than 100 µM; in the test on SW-620 colon it was greater than 100 µM; in the test on OVCAR-5 ovarian it was greater than 100 µM; in the test on SF-295 CNS, greater than 100 µM; with HOP-62 NSCLC, 62.4 µM; in the test with HCT-116 colon, greater than 100 µM. The TGI in the test with SK-MEL-28 melanoma, in the test on MOLT-4 leukemia, in the test with NCI-H522 lung, in the test with UO-31 renal, with COLO 205 colon and with SF-268 CNS was greater than 100 µM each time. Moreover, the TGI in the test on MALME-3M melanoma and in the test with OVCAR-3 ovarian was greater than 100 µM throughout.

With `CCC(C(=O)c1ccc(OC)c(OC)c1)N(C(=O)C(F)(F)F)C(C)c1ccccc1` (stereo not given), the TGI in the test on M14 melanoma, with SNB-19 CNS, in the test on UACC-62 melanoma, with RPMI-8226 leukemia, with HT29 colon and with UACC-257 melanoma was greater than 100 µM throughout. Moreover, the TGI in the test with K-562 leukemia, in the test on SW-620 colon, with OVCAR-5 ovarian, in the test on SF-295 CNS, in the test on HOP-62 NSCLC and in the test with HCT-116 colon was greater than 100 µM in each case. Moreover, the TGI in the test with SK-MEL-28 melanoma, with MOLT-4 leukemia, in the test with NCI-H522 lung, in the test with UO-31 renal, in the test on COLO 205 colon and with SF-268 CNS was greater than 100 µM throughout. The TGI in the test with MALME-3M melanoma and with OVCAR-3 ovarian was greater than 100 µM each time.

In the case of `O=C1C(Cl)N(c2ccccc2[N+](=O)[O-])C1c1c[nH]c2ccccc12` (stereo not given), the TGI in the test with M14 melanoma, in the test on SNB-19 CNS, in the test on UACC-62 melanoma, in the test with RPMI-8226 leukemia, in the test with HT29 colon and with UACC-257 melanoma was greater than 100 µM throughout. In addition, the TGI is greater than 100 µM in the test with K-562 leukemia; greater than 100 µM with SW-620 colon; 54.8 µM in the test with OVCAR-5 ovarian; greater than 100 µM in the test with SF-295 CNS; greater than 100 µM in the test on HOP-62 NSCLC; greater than 100 µM with HCT-116 colon. Further, the TGI in the test with SK-MEL-28 melanoma, in the test on MOLT-4 leukemia, in the test on NCI-H522 lung, in the test on UO-31 renal, with COLO 205 colon and with SF-268 CNS was greater than 100 µM throughout. Besides, the TGI with MALME-3M melanoma and with OVCAR-3 ovarian was greater than 100 µM in each case.
